Data from article PMC8943889, “Synthetic studies with the brevicidine and laterocidine lipopeptide antibiotics including analogues with enhanced properties and in vivo efficacy” (Chemical Science, 2022).
Converted amounts (≈) assume the structure as drawn. Where two headings read alike, the source gives them in different places. Positions of bridges follow the written chain, without caps; N, C: chain ends. Non-standard residues stand in square brackets, D forms with d. Residues, ends and D or L forms follow the SMILES beside them. ξ: configuration not given here. *: point of attachment. Hexanoyl(4ξ-Me) = CCC(C)CCC(=O)*; dOrn = NCCC[C@@H](N)C(=O)O; Orn = NCCC[C@H](N)C(=O)O; Dap = NC[C@H](N)C(=O)O

Experiments:
Format in all cases: cell-based
K. pneumoniae JS-123 = tested on: K. pneumoniae JS-123
Description: (§1) Minimum inhibitory concentrations (MICs) were determined by broth microdilution according to CLSI guidelines in triplicate. Blood agar plates were inoculated with glycerol stocks of E. coli ATCC 25922, E. coli MCR-1 (clinical isolate from Utrecht Medical Centre, NL), E. coli EQAS MCR-2 (clinical isolate from Wageningen University and Research, NL), K. pneumoniae ATCC 11228, K. pneumoniae ATCC 13883, K. pneumonia 2048 (clnical isolate from Vrije Universiteit Amsterdam Medical Centre, NL), K. pneumonia JS-123 (clinical isolate from Utrecht Medical […]
(§2) (clinical isolate from Rijksinstituut voor Volksgezondheid en Milieu, NL), A. baumannii MDR (clinical isolate from Vrije Universiteit Amsterdam Medical Centre, NL), P. aeruginosa ATCC 27853, P. aeruginosa PAO1, P. aeruginosa NRZ-03961 (Reference strain from Das Nationale Referenzzentrum für gramnegative Krankenhauserreger, DE), P. aeruginosa M-120 (clinical isolate from Leiden University Medical Centre, NL) and S. aureus USA300 (clinical isolate from Texas Children's Hospital, USA). E. coli 25922 MCR1 was grown on LB agar supplemented with kanamycin. The inoculated agar plates were then incubated for 16 h at 37°C . Individually grown colonies were subsequently used to inoculate 3 mL aliquots of TSB that were then incubated at 37°C with shaking at 220 rpm. In parallel, the lipopeptide antibiotics to be assessed were serially diluted with Mueller-Hinton broth (MHB) in polypropylene 96-well plates (50 µL in each well).
(§3) Once the OD600 of the bacterial suspensions reached 0.5, the bacteria were diluted with MHB (final concentration 2 × 10^5 CFU mL−1) and added to the microplates containing the test compounds (50 µL to each well, final volume: 100 µL). The well-plates were sealed with an adhesive membrane and after 16 h of incubation at 37°C with shaking at 220 rpm the wells were visually inspected for bacterial growth. MIC values reported are based on three technical replicates and defined as the lowest concentration of the compound that prevented visible growth of bacteria. […]

E. coli ATCC 25922 MCR-1 = conditions: Ec ATCC 25922 MCR-1; broth microdilution (CLSI), MHB, 16 h 37 °C, three technical replicates
Description: as §1, §2, §3

A. baumannii MDR = conditions: Ab MDR; broth microdilution (CLSI), MHB, 16 h 37 °C, three technical replicates
Description: as §1, §2, §3

A. baumannii ATCC 17961 = tested on: A. baumannii ATCC 17961
Description: as §1, §2, §3

K. pneumoniae ATCC 11228 = tested on: K. pneumoniae ATCC 11228
Description: as §1, §2, §3

P. aeruginosa PAO1 = tested on: P. aeruginosa PAO1
Description: as §1, §2, §3

P. aeruginosa NRZ-03961 = tested on: P. aeruginosa NRZ-03961
Description: as §1, §2, §3

E. coli ATCC 25922 = tested on: E. coli ATCC 25922
Description: as §1, §2, §3

S. aureus USA300 = tested on: S. aureus USA300
Description: as §1, §2, §3

K. pneumoniae ATCC 13883 = tested on: K. pneumoniae ATCC 13883
Description: as §1, §2, §3

E. coli EQAS MCR-2 = conditions: Ec EQAS MCR-2; broth microdilution (CLSI), MHB, 16 h 37 °C, three technical replicates
Description: as §1, §2, §3

P. aeruginosa ATCC 27853 = tested on: P. aeruginosa ATCC 27853
Description: as §1, §2, §3

A. baumannii ATCC 17978 = tested on: A. baumannii ATCC 17978
Description: as §1, §2, §3

K. pneumoniae 2048 = tested on: K. pneumoniae 2048
Description: as §1, §2, §3

A. baumannii 2018-006 = tested on: A. baumannii 2018-006
Description: as §1, §2, §3

P. aeruginosa M-120 = tested on: P. aeruginosa M-120
Description: as §1, §2, §3

[1] = tested on: E. coli MCR-1 (clinical isolate); conditions: Ec MCR-1; broth microdilution (CLSI), MHB, 16 h 37 °C, three technical replicates
Description: as §1, §2, §3

SMILES	MIC (K. pneumoniae JS-123; JS-123, 16 h) [µg/mL]	MIC (E. coli ATCC 25922 MCR-1) [µg/mL]	MIC (A. baumannii MDR) [µg/mL]	MIC (A. baumannii ATCC 17961; ATCC 17961, 16 h) [µg/mL]	MIC (K. pneumoniae ATCC 11228; ATCC 11228, 16 h) [µg/mL]	MIC (P. aeruginosa PAO1; PAO1, 16 h) [µg/mL]	MIC (P. aeruginosa NRZ-03961; NRZ-03961, 16 h) [µg/mL]	MIC (E. coli ATCC 25922; ATCC 25922, 16 h) [µg/mL]	MIC (S. aureus USA300; USA300, 16 h) [µg/mL]	MIC (K. pneumoniae ATCC 13883; ATCC 13883, 16 h) [µg/mL]	MIC (E. coli EQAS MCR-2) [µg/mL]	MIC (P. aeruginosa ATCC 27853; ATCC 27853, 16 h) [µg/mL]	MIC (A. baumannii ATCC 17978; ATCC 17978, 16 h) [µg/mL]	MIC (K. pneumoniae 2048; 2048, 16 h) [µg/mL]	MIC (A. baumannii 2018-006; 2018-006, 16 h) [µg/mL]	MIC (P. aeruginosa M-120; M-120, 16 h) [µg/mL]	MIC [1] [µg/mL]	also measured
CCC(C)CCC(=O)N[C@H](CC(N)=O)C(=O)N[C@H](Cc1ccc(O)cc1)C(=O)N[C@H](Cc1c[nH]c2ccccc12)C(=O)N[C@H](CCCN)C(=O)N[C@@H](CCCN)C(=O)NCC(=O)N[C@H](CCCN)C(=O)N[C@@H](Cc1c[nH]c2ccccc12)C(=O)N[C@@H]1C(=O)N[C@@H]([C@@H](C)CC)C(=O)NCC(=O)N[C@@H](CO)C(=O)O[C@@H]1C (stereo partly drawn) [Brev (1), brevicidine]	1 (≈ 0.658 µM)	2 (≈ 1.32 µM)	4 (≈ 2.63 µM)	2 to 4	1 to 2	2 (≈ 1.32 µM)	2 (≈ 1.32 µM)	1 to 2	64 (≈ 42.1 µM)	1 (≈ 0.658 µM)	2 (≈ 1.32 µM)	≤0.5	4 (≈ 2.63 µM)	1 to 2	4 (≈ 2.63 µM)	2 to 4		
CCC(C)CCC(=O)N[C@H](CC(N)=O)C(=O)N[C@H](Cc1ccc(O)cc1)C(=O)N[C@H](Cc1c[nH]c2ccccc12)C(=O)N[C@H](CCCN)C(=O)N[C@@H](CCCN)C(=O)NCC(=O)N[C@H](CCCN)C(=O)N[C@@H](Cc1c[nH]c2ccccc12)C(=O)N[C@H]1CNC(=O)[C@H](CO)NC(=O)CNC(=O)[C@H]([C@@H](C)CC)NC1=O (stereo partly drawn) [Dap9-Brev (5), Dap9-Brevicidamide] ({Hexanoyl(4ξ-Me)}-[dN][dY][dW][dOrn][Orn]G[dOrn]W[Dap]IGS; lactam 9-C)		16 (≈ 10.6 µM)	8 (≈ 5.32 µM)								8 to 16						8 to 16	MIC (K. pneumoniae JS-123; Kp JS-123, broth microdilution (CLSI), MHB, 16 h 37 °C, three technical replicates): 8 µg/mL (≈ 5.32 µM); MIC (A. baumannii ATCC 17961; Ab ATCC 17961, broth microdilution (CLSI), MHB, 16 h 37 °C, three technical replicates): 4 µg/mL (≈ 2.66 µM); MIC (K. pneumoniae ATCC 11228; Kp ATCC 11228, broth microdilution (CLSI), MHB, 16 h 37 °C, three technical replicates): 16 to 32 µg/mL; MIC (P. aeruginosa PAO1; Pa PAO1, broth microdilution (CLSI), MHB, 16 h 37 °C, three technical replicates): 16 to 32 µg/mL; MIC (P. aeruginosa NRZ-03961; Pa NRZ-03961, broth microdilution (CLSI), MHB, 16 h 37 °C, three technical replicates): 16 to 32 µg/mL; MIC (E. coli ATCC 25922; Ec ATCC 25922, broth microdilution (CLSI), MHB, 2 × 10^5 CFU/mL, 16 h 37 °C, visual read-out, three technical replicates): 8 to 16 µg/mL; MIC (S. aureus USA300; Sa USA300, broth microdilution (CLSI), MHB, 16 h 37 °C, three technical replicates): >64 µg/mL; MIC (K. pneumoniae ATCC 13883; Kp ATCC 13883, broth microdilution (CLSI), MHB, 16 h 37 °C, three technical replicates): 32 µg/mL (≈ 21.3 µM); MIC (P. aeruginosa ATCC 27853; Pa ATCC 27853, broth microdilution (CLSI), MHB, 16 h 37 °C, three technical replicates): 8 µg/mL (≈ 5.32 µM); MIC (A. baumannii ATCC 17978; Ab ATCC 17978, broth microdilution (CLSI), MHB, 16 h 37 °C, three technical replicates): 16 µg/mL (≈ 10.6 µM); MIC (K. pneumoniae 2048; Kp 2048, broth microdilution (CLSI), MHB, 16 h 37 °C, three technical replicates): 16 to 32 µg/mL; MIC (A. baumannii 2018-006; Ab 2018-006, broth microdilution (CLSI), MHB, 16 h 37 °C, three technical replicates): 8 µg/mL (≈ 5.32 µM); MIC (P. aeruginosa M-120; Pa M-120, broth microdilution (CLSI), MHB, 16 h 37 °C, three technical replicates): 16 µg/mL (≈ 10.6 µM)
CCC(C)CCC(=O)N[C@H](CC(N)=O)C(=O)N[C@H](Cc1ccc(O)cc1)C(=O)N[C@H](Cc1c[nH]c2ccccc12)C(=O)N[C@H](CCCN)C(=O)N[C@@H](CCCN)C(=O)NCC(=O)N[C@H](CCCN)C(=O)N[C@@H](Cc1c[nH]c2ccccc12)C(=O)N[C@@H]1C(=O)N[C@@H]([C@@H](C)CC)C(=O)NCC(=O)N[C@@H](CO)C(=O)N[C@@H]1C (stereo partly drawn) [MeDap9-Brev (7)]	4 to 8	8 (≈ 5.27 µM)		8 to 16	8 (≈ 5.27 µM)	4 (≈ 2.63 µM)	8 (≈ 5.27 µM)	16 (≈ 10.5 µM)	>64	8 (≈ 5.27 µM)		2 to 4	16 (≈ 10.5 µM)	8 to 16	16 (≈ 10.5 µM)	4 (≈ 2.63 µM)	8 (≈ 5.27 µM)	
